Values quoted from earlier work, collected in US20140056863A1, “NUTRITIONAL COMPOSITIONS HAVING ALPHA-HICA AND EICOSAPENTAENOIC ACID” (Nestec S.A., priority 2011, published 2014).

Columns and labels:
[1] = test system: intestinal mammalian target of rapamycin (mTOR); conditions: piglet stressed with LPS; leading to increased protein synthesis and anti-inflammatory responses
[2] = test system: malnourished aged animals

O=C(O)CCC(=O)C(=O)O [AKG, α-ketoglutarate]
phosphorylation of intestinal mTOR [1]: increased phosphorylation

NC(=O)NCCC[C@H](N)C(=O)O [Citrulline, citrulline]
anabolic effect [2]: anabolic effect
